# Results: ChEMBL document CHEMBL3885861, “Open TG-GATES”
# Organism: Rattus norvegicus
# Experiment: Open TG-GATES - Regimen: Single
# Format: toxicity, organism-based, Sprague-Dawley
# Parameters: regimen Single, gender Male, age 6 weeks
# Settings: in vivo, po, 0 mg/kg, route gavage, dose level Control; for APTT / Bas / Eos / Fbg / Hb / Ht / Lym / MCH / MCHC / MCV / Mono / Neu / PT / Plat / RBC / Ret / WBC: tissue Blood; for KIDNEY_L / KIDNEY_R / KIDNEY_TOTAL: tissue Kidney; for LIVER: tissue Liver; for A/G / ALP / ALT / AST / BUN / CRE / Ca / Cl / DBIL / GLC / IP / K / LDH / Na / PL / RALB / TBIL / TC / TG / TP / gamma-GTP: tissue Plasma
smiles,measurement,setting,value
Cn1cnc([N+](=O)[O-])c1Sc1ncnc2nc[nH]c12 [AZATHIOPRINE],TERMINAL_BW,3 h,189.8 g
same,APTT,3 h,23.1 s
same,Bas,3 h,0%
same,Eos,3 h,1%
same,Fbg,3 h,288.2 mg/dL
same,Hb,3 h,13.4 g/dL
same,Ht,3 h,39.3%
same,Lym,3 h,78.6%
same,MCH,3 h,21.9 pg
same,MCHC,3 h,34%
same,MCV,3 h,64.5 fL
same,Mono,3 h,2.4%
same,Neu,3 h,17.2%
same,PT,3 h,15.7 s
same,Plat,3 h,117.7 x10_4/uL
same,RBC,3 h,610.8 x10_4/ul
same,Ret,3 h,9.3%
same,WBC,3 h,98.5 x10_2/uL
same,KIDNEY_L,3 h,0.9 g
same,KIDNEY_R,3 h,0.9 g
same,KIDNEY_TOTAL,3 h,1.7 g
same,LIVER,3 h,8.6 g
same,A/G,3 h,1.1
same,ALP,3 h,1465.6 IU/L
same,ALT,3 h,46.8 IU/L
same,AST,3 h,78.4 IU/L
same,BUN,3 h,11.8 mg/dL
same,CRE,3 h,0.2 mg/dL
same,Ca,3 h,10.3 mg/dL
same,Cl,3 h,107 meq/L
same,DBIL,3 h,0 mg/dL
same,GLC,3 h,175.4 mg/dL
same,IP,3 h,8.2 mg/dL
same,K,3 h,3.9 meq/L
same,LDH,3 h,217.6 IU/L
same,Na,3 h,142.6 meq/L
same,PL,3 h,129.6 mg/dL
same,RALB,3 h,2.9 g/dL
same,TBIL,3 h,0.006 mg/dL
same,TC,3 h,79 mg/dL
same,TG,3 h,46 mg/dL
same,TP,3 h,5.5 g/dL
same,gamma-GTP,3 h,1.2 IU/L
same,TERMINAL_BW,6 h,186.3 g
same,APTT,6 h,21.1 s
same,Bas,6 h,0%
same,Eos,6 h,1%
same,Fbg,6 h,307.4 mg/dL
same,Hb,6 h,13.2 g/dL
same,Ht,6 h,39.3%
same,Lym,6 h,73.8%
same,MCH,6 h,21.6 pg
same,MCHC,6 h,33.7%
same,MCV,6 h,64.1 fL
same,Mono,6 h,2.4%
same,Neu,6 h,22%
same,PT,6 h,15.7 s
same,Plat,6 h,124.9 x10_4/uL
same,RBC,6 h,612.4 x10_4/ul
same,Ret,6 h,9.5%
same,WBC,6 h,66 x10_2/uL
same,KIDNEY_L,6 h,0.9 g
same,KIDNEY_R,6 h,0.9 g
same,KIDNEY_TOTAL,6 h,1.7 g
same,LIVER,6 h,8.4 g
same,A/G,6 h,1.3
same,ALP,6 h,1451.6 IU/L
same,ALT,6 h,42.8 IU/L
same,AST,6 h,70.8 IU/L
same,BUN,6 h,11.6 mg/dL
same,CRE,6 h,0.1 mg/dL
same,Ca,6 h,10.4 mg/dL
same,Cl,6 h,106.4 meq/L
same,DBIL,6 h,0.002 mg/dL
same,GLC,6 h,183.8 mg/dL
same,IP,6 h,8.8 mg/dL
same,K,6 h,4.2 meq/L
same,LDH,6 h,254.6 IU/L
same,Na,6 h,141.6 meq/L
same,PL,6 h,137.8 mg/dL
same,RALB,6 h,3.1 g/dL
same,TBIL,6 h,0.014 mg/dL
same,TC,6 h,77.6 mg/dL
same,TG,6 h,66.8 mg/dL
same,TP,6 h,5.5 g/dL
same,gamma-GTP,6 h,1 IU/L
same,TERMINAL_BW,9 h,190.4 g
same,APTT,9 h,20.8 s
same,Bas,9 h,0%
same,Eos,9 h,0.6%
same,Fbg,9 h,301.8 mg/dL
same,Hb,9 h,12.6 g/dL
same,Ht,9 h,37.7%
same,Lym,9 h,79.6%
same,MCH,9 h,21.6 pg
same,MCHC,9 h,33.2%
same,MCV,9 h,65 fL
same,Mono,9 h,2%
same,Neu,9 h,16.2%
same,PT,9 h,15.2 s
same,Plat,9 h,127.2 x10_4/uL
same,RBC,9 h,582 x10_4/ul
same,Ret,9 h,9.9%
same,WBC,9 h,93.5 x10_2/uL
same,KIDNEY_L,9 h,0.9 g
same,KIDNEY_R,9 h,0.9 g
same,KIDNEY_TOTAL,9 h,1.9 g
same,LIVER,9 h,8.2 g
same,A/G,9 h,1.3
same,ALP,9 h,1520.4 IU/L
same,ALT,9 h,38 IU/L
same,AST,9 h,72.8 IU/L
same,BUN,9 h,10.6 mg/dL
same,CRE,9 h,0.1 mg/dL
same,Ca,9 h,10.5 mg/dL
same,Cl,9 h,105.6 meq/L
same,DBIL,9 h,0.004 mg/dL
same,GLC,9 h,176.2 mg/dL
same,IP,9 h,9.5 mg/dL
same,K,9 h,4.3 meq/L
same,LDH,9 h,182.4 IU/L
same,Na,9 h,141.2 meq/L
same,PL,9 h,125.2 mg/dL
same,RALB,9 h,3 g/dL
same,TBIL,9 h,0.016 mg/dL
same,TC,9 h,76.4 mg/dL
same,TG,9 h,46.2 mg/dL
same,TP,9 h,5.3 g/dL
same,gamma-GTP,9 h,1 IU/L
same,TERMINAL_BW,24 h,202.7 g
same,APTT,24 h,21.7 s
same,Bas,24 h,0%
same,Eos,24 h,0.6%
same,Fbg,24 h,308.2 mg/dL
same,Hb,24 h,13.5 g/dL
same,Ht,24 h,39.6%
same,Lym,24 h,77.4%
same,MCH,24 h,22.2 pg
same,MCHC,24 h,34.1%
same,MCV,24 h,65.2 fL
same,Mono,24 h,2%
same,Neu,24 h,18.6%
same,PT,24 h,16.2 s
same,Plat,24 h,117.2 x10_4/uL
same,RBC,24 h,607 x10_4/ul
same,Ret,24 h,8.8%
same,WBC,24 h,97.8 x10_2/uL
same,KIDNEY_L,24 h,0.9 g
same,KIDNEY_R,24 h,0.9 g
same,KIDNEY_TOTAL,24 h,1.7 g
same,LIVER,24 h,9.6 g
same,A/G,24 h,1.2
same,ALP,24 h,1642 IU/L
same,ALT,24 h,46 IU/L
same,AST,24 h,74.6 IU/L
same,BUN,24 h,16.8 mg/dL
same,CRE,24 h,0.1 mg/dL
same,Ca,24 h,11 mg/dL
same,Cl,24 h,106.8 meq/L
same,DBIL,24 h,0 mg/dL
same,GLC,24 h,185.6 mg/dL
same,IP,24 h,7 mg/dL
same,K,24 h,3.9 meq/L
same,LDH,24 h,223.2 IU/L
same,Na,24 h,143.2 meq/L
same,PL,24 h,156.8 mg/dL
same,RALB,24 h,3.1 g/dL
same,TBIL,24 h,0.006 mg/dL
same,TC,24 h,86.8 mg/dL
same,TG,24 h,102.8 mg/dL
same,TP,24 h,5.6 g/dL
same,gamma-GTP,24 h,1 IU/L
